Assay results taken from patent US9113629B2, “4-amino-6-(4-substituted-phenyl)-picolinates and 6-amino-2-(4-substituted-phenyl)-pyrimidine-4-carboxylates and their use as herbicides” (DOW AGROSCIENCES LLC, priority 2013, dated 2015).
Like-named read-outs stand apart in the source and are kept apart here.

Tests used:
[1] = test system: Key Broadleaf Weed and Crop Species; assay: Post-emergent Test II herbicidal activity (Table 5); assay type: in vivo; settings: post-emergence, 336 h, 14 days after application
In short: (§1)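 Greenhouse-grown plants at first or second true leaf stage were sprayed post-emergence with compound in acetone/DMSO-based aqueous spray containing crop oil concentrate and surfactant, at 187 L/ha, highest rate plus ½× to 1/16× dilutions. After 14 d, injury was scored visually versus untreated plants, 0 (none) to 100% (complete kill).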

[2] = test system: Key Grass and Sedge Weeds as well as Grass Crops; assay: Post-emergent Test II herbicidal activity (Table 6); assay type: in vivo; settings: post-emergence, 336 h
In short: as §1

COC(=O)c1nc(-c2ccc(C#N)cc2F)cc(N)c1Cl [Compound 16]
75 to 84%: pest or weed control at 140 g/ha ([2]; DIGSA: crabgrass (Digitaria sanguinalis), 140 g ai/ha, read-out: Visual Growth Reduction (%) 14 Days After Application, DIGSA) | pest or weed control at 70 g/ha ([2]; ECHCG: barnyardgrass (Echinochloa crus-galli), 70 g ai/ha, read-out: Visual Growth Reduction (%) 14 Days After Application, ECHCG)
85 to 94%: pest or weed control at 70 g/ha ([1]; ABUTH: velvetleaf (Abutilon theophrasti), application rate 70 g ai/ha, read-out: Visual Growth Reduction (%) 14 Days After Application, ABUTH) | pest or weed control at 70 g/ha ([2]; ZEAMX: maize, corn (Zea mays), crop, 70 g ai/ha, read-out: Visual Growth Reduction (%) 14 Days After Application, ZEAMX) | pest or weed control at 140 g/ha ([2]; ZEAMX: maize, corn (Zea mays), crop, 140 g ai/ha, read-out: Visual Growth Reduction (%) 14 Days After Application, ZEAMX)
95 to 100%: pest or weed control at 140 g/ha ([1]; ABUTH: velvetleaf (Abutilon theophrasti), application rate 140 g ai/ha, read-out: Visual Growth Reduction (%) 14 Days After Application, ABUTH) | pest or weed control at 140 g/ha ([1]; AMARE: redroot pigweed (Amaranthus retroflexus), application rate 140 g ai/ha, read-out: Visual Growth Reduction (%) 14 Days After Application, AMARE) | pest or weed control at 70 g/ha ([1]; CHEAL: lambsquarters (Chenopodium album), application rate 70 g ai/ha, read-out: Visual Growth Reduction (%) 14 Days After Application, CHEAL) | pest or weed control at 140 g/ha ([1]; CHEAL: lambsquarters (Chenopodium album), application rate 140 g ai/ha, read-out: Visual Growth Reduction (%) 14 Days After Application, CHEAL) | pest or weed control at 70 g/ha ([1]; EPHHL: wild poinsettia (Euphorbia heterophylla), application rate 70 g ai/ha, read-out: Visual Growth Reduction (%) 14 Days After Application, EPHHL) | pest or weed control at 140 g/ha ([1]; EPHHL: wild poinsettia (Euphorbia heterophylla), application rate 140 g ai/ha, read-out: Visual Growth Reduction (%) 14 Days After Application, EPHHL) | pest or weed control at 70 g/ha ([1]; HELAN: sunflower (Helianthus annuus), application rate 70 g ai/ha, read-out: Visual Growth Reduction (%) 14 Days After Application, HELAN) | pest or weed control at 140 g/ha ([1]; HELAN: sunflower (Helianthus annuus), application rate 140 g ai/ha, read-out: Visual Growth Reduction (%) 14 Days After Application, HELAN) | pest or weed control at 70 g/ha ([2]; CYPES: yellow nutsedge (Cyperus esculentus), 70 g ai/ha, read-out: Visual Growth Reduction (%) 14 Days After Application, CYPES) | pest or weed control at 140 g/ha ([2]; CYPES: yellow nutsedge (Cyperus esculentus), 140 g ai/ha, read-out: Visual Growth Reduction (%) 14 Days After Application, CYPES) | pest or weed control at 140 g/ha ([2]; ECHCG: barnyardgrass (Echinochloa crus-galli), 140 g ai/ha, read-out: Visual Growth Reduction (%) 14 Days After Application, ECHCG)
60 to 74%: pest or weed control at 70 g/ha ([2]; DIGSA: crabgrass (Digitaria sanguinalis), 70 g ai/ha, read-out: Visual Growth Reduction (%) 14 Days After Application, DIGSA) | pest or weed control at 140 g/ha ([2]; SETFA: giant foxtail (Setaria faberi), 140 g ai/ha, read-out: Visual Growth Reduction (%) 14 Days After Application, SETFA) | pest or weed control at 70 g/ha ([2]; SORVU: grain sorghum (Sorghum vulgare), 70 g ai/ha, read-out: Visual Growth Reduction (%) 14 Days After Application, SORVU) | pest or weed control at 140 g/ha ([2]; SORVU: grain sorghum (Sorghum vulgare), 140 g ai/ha, read-out: Visual Growth Reduction (%) 14 Days After Application, SORVU)
0 to 29%: pest or weed control at 70 g/ha ([1]; BRSNN: oilseed-rape, canola (Brassica napus), application rate 70 g ai/ha, read-out: Visual Growth Reduction (%) 14 Days After Application, BRSNN) | pest or weed control at 140 g/ha ([1]; BRSNN: oilseed-rape, canola (Brassica napus), application rate 140 g ai/ha, read-out: Visual Growth Reduction (%) 14 Days After Application, BRSNN) | pest or weed control at 70 g/ha ([2]; ORYSA: rice (Oryza sativa), crop, 70 g ai/ha, read-out: Visual Growth Reduction (%) 14 Days After Application, ORYSA) | pest or weed control at 140 g/ha ([2]; ORYSA: rice (Oryza sativa), crop, 140 g ai/ha, read-out: Visual Growth Reduction (%) 14 Days After Application, ORYSA)
30 to 44%: pest or weed control at 70 g/ha ([1]; VIOTR: wild pansy (Viola tricolor), application rate 70 g ai/ha, read-out: Visual Growth Reduction (%) 14 Days After Application, VIOTR) | pest or weed control at 140 g/ha ([1]; VIOTR: wild pansy (Viola tricolor), application rate 140 g ai/ha, read-out: Visual Growth Reduction (%) 14 Days After Application, VIOTR) | pest or weed control at 70 g/ha ([2]; TRZSS (wheat, Triticum aestivum), crop, 70 g ai/ha, read-out: Visual Growth Reduction (%) 14 Days After Application, TRZSS)
45 to 59%: pest or weed control at 70 g/ha ([2]; SETFA: giant foxtail (Setaria faberi), 70 g ai/ha, read-out: Visual Growth Reduction (%) 14 Days After Application, SETFA) | pest or weed control at 140 g/ha ([2]; TRZSS (wheat, Triticum aestivum), crop, 140 g ai/ha, read-out: Visual Growth Reduction (%) 14 Days After Application, TRZSS)

C=Cc1c(C(=O)O)nc(-c2ccc(I)cc2)c(F)c1N [Compound 17]
60 to 74%: pest or weed control at 70 g/ha ([2]; ORYSA: rice (Oryza sativa), application rate 70 g ai/ha, read-out: Visual Growth Reduction (%) 14 Days After Application, ORYSA) | pest or weed control at 70 g/ha ([2]; ZEAMX: maize, corn (Zea mays), application rate 70 g ai/ha, read-out: Visual Growth Reduction (%) 14 Days After Application, ZEAMX)
45 to 59%: pest or weed control at 140 g/ha ([2]; Triticum aestivum, TRZSS (wheat), application rate 140 g ai/ha, read-out: Visual Growth Reduction (%) 14 Days After Application, TRZSS) | pest or weed control at 140 g/ha ([2]; SETFA: giant foxtail (Setaria faberi), application rate 140 g ai/ha, read-out: Visual Growth Reduction (%) 14 Days After Application, SETFA)
85 to 94%: pest or weed control at 70 g/ha ([1]; CHEAL: lambsquarters (Chenopodium album), 70 g ai/ha, post-emergent, read-out: Visual Growth Reduction (%) 14 Days After Application CHEAL) | pest or weed control at 70 g/ha ([1]; HELAN: sunflower (Helianthus annuus), 70 g ai/ha, post-emergent, read-out: Visual Growth Reduction (%) 14 Days After Application HELAN) | pest or weed control at 140 g/ha ([2]; ECHCG: barnyardgrass (Echinochloa crus-galli), application rate 140 g ai/ha, read-out: Visual Growth Reduction (%) 14 Days After Application, ECHCG) | pest or weed control at 140 g/ha ([2]; ORYSA: rice (Oryza sativa), application rate 140 g ai/ha, read-out: Visual Growth Reduction (%) 14 Days After Application, ORYSA) | pest or weed control at 70 g/ha ([2]; SORVU: grain sorghum (Sorghum vulgare), application rate 70 g ai/ha, read-out: Visual Growth Reduction (%) 14 Days After Application, SORVU)
95 to 100%: pest or weed control at 70 g/ha ([1]; ABUTH: velvetleaf (Abutilon theophrasti), 70 g ai/ha, post-emergent, read-out: Visual Growth Reduction (%) 14 Days After Application ABUTH) | pest or weed control at 140 g/ha ([1]; ABUTH: velvetleaf (Abutilon theophrasti), 140 g ai/ha, post-emergent, read-out: Visual Growth Reduction (%) 14 Days After Application ABUTH) | pest or weed control at 70 g/ha ([1]; AMARE: redroot pigweed (Amaranthus retroflexus), 70 g ai/ha, post-emergent, read-out: Visual Growth Reduction (%) 14 Days After Application AMARE) | pest or weed control at 140 g/ha ([1]; AMARE: redroot pigweed (Amaranthus retroflexus), 140 g ai/ha, post-emergent, read-out: Visual Growth Reduction (%) 14 Days After Application AMARE) | pest or weed control at 70 g/ha ([1]; BRSNN: oilseed-rape, canola (Brassica napus), 70 g ai/ha, post-emergent, read-out: Visual Growth Reduction (%) 14 Days After Application BRSNN) | pest or weed control at 140 g/ha ([1]; BRSNN: oilseed-rape, canola (Brassica napus), 140 g ai/ha, post-emergent, read-out: Visual Growth Reduction (%) 14 Days After Application BRSNN) | pest or weed control at 140 g/ha ([1]; CHEAL: lambsquarters (Chenopodium album), 140 g ai/ha, post-emergent, read-out: Visual Growth Reduction (%) 14 Days After Application CHEAL) | pest or weed control at 70 g/ha ([1]; EPHHL: wild poinsettia (Euphorbia heterophylla), 70 g ai/ha, post-emergent, read-out: Visual Growth Reduction (%) 14 Days After Application EPHHL) | pest or weed control at 140 g/ha ([1]; EPHHL: wild poinsettia (Euphorbia heterophylla), 140 g ai/ha, post-emergent, read-out: Visual Growth Reduction (%) 14 Days After Application EPHHL) | pest or weed control at 140 g/ha ([1]; HELAN: sunflower (Helianthus annuus), 140 g ai/ha, post-emergent, read-out: Visual Growth Reduction (%) 14 Days After Application HELAN) | pest or weed control at 70 g/ha ([2]; CYPES: yellow nutsedge (Cyperus esculentus), application rate 70 g ai/ha, read-out: Visual Growth Reduction (%) 14 Days After Application, CYPES) | pest or weed control at 140 g/ha ([2]; CYPES: yellow nutsedge (Cyperus esculentus), application rate 140 g ai/ha, read-out: Visual Growth Reduction (%) 14 Days After Application, CYPES) | pest or weed control at 140 g/ha ([2]; SORVU: grain sorghum (Sorghum vulgare), application rate 140 g ai/ha, read-out: Visual Growth Reduction (%) 14 Days After Application, SORVU)
30 to 44%: pest or weed control at 70 g/ha ([2]; Triticum aestivum, TRZSS (wheat), application rate 70 g ai/ha, read-out: Visual Growth Reduction (%) 14 Days After Application, TRZSS)
0 to 29%: pest or weed control at 70 g/ha ([1]; VIOTR: wild pansy (Viola tricolor), 70 g ai/ha, post-emergent, read-out: Visual Growth Reduction (%) 14 Days After Application VIOTR) | pest or weed control at 140 g/ha ([1]; VIOTR: wild pansy (Viola tricolor), 140 g ai/ha, post-emergent, read-out: Visual Growth Reduction (%) 14 Days After Application VIOTR) | pest or weed control at 70 g/ha ([2]; DIGSA: crabgrass (Digitaria sanguinalis), application rate 70 g ai/ha, read-out: Visual Growth Reduction (%) 14 Days After Application, DIGSA) | pest or weed control at 140 g/ha ([2]; DIGSA: crabgrass (Digitaria sanguinalis), application rate 140 g ai/ha, read-out: Visual Growth Reduction (%) 14 Days After Application, DIGSA) | pest or weed control at 70 g/ha ([2]; SETFA: giant foxtail (Setaria faberi), application rate 70 g ai/ha, read-out: Visual Growth Reduction (%) 14 Days After Application, SETFA)
75 to 84%: pest or weed control at 70 g/ha ([2]; ECHCG: barnyardgrass (Echinochloa crus-galli), application rate 70 g ai/ha, read-out: Visual Growth Reduction (%) 14 Days After Application, ECHCG) | pest or weed control at 140 g/ha ([2]; ZEAMX: maize, corn (Zea mays), application rate 140 g ai/ha, read-out: Visual Growth Reduction (%) 14 Days After Application, ZEAMX)
